The record followed here is US20170334899A1, “AMINO-SUBSTITUTED ISOTHIAZOLES” (Bayer Pharma Aktiengesellschaft, priority 2014, published 2017).

Structures are written as SMILES. Several values for one entry are separate records, joined by “and”; a condition that tells them apart may be missing. Equal values may be shown once. A value given as a limit tells only on which side of the number the result lay.

This experiment deals with T1, human kinase Mps-1 (Homo sapiens, UniProt P33981).
T1 construct: N-terminally GST-tagged human full length recombinant Mps-1 kinase; GST (N); purchased Invitrogen, Karslruhe, Germany PV4071
T1 sequence (P33981 1-857): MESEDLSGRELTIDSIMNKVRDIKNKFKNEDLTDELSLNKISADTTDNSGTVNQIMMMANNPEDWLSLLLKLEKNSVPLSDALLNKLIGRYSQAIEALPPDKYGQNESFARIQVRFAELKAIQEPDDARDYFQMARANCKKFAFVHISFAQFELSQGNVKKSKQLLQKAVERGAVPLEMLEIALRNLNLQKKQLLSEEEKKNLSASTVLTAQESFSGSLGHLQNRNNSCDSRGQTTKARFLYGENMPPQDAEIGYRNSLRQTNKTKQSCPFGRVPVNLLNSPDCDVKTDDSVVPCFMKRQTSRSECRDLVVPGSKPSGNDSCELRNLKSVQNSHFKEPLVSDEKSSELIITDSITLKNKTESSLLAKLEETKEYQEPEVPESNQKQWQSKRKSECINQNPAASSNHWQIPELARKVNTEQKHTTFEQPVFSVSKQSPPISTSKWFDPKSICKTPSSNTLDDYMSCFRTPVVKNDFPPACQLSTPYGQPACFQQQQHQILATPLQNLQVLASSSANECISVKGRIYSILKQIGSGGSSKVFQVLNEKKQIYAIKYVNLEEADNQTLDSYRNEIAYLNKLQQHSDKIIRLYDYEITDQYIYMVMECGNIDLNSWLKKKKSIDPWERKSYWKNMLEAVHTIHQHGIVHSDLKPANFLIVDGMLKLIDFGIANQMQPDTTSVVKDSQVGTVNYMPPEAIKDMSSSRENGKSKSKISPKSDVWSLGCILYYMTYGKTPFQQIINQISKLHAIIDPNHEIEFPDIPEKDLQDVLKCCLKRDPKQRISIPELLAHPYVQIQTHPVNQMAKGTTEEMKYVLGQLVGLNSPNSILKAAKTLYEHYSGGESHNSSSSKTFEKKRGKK
Description: Mps-1 kinase assay (TR-FRET). As to conditions: Mps-1 TR-FRET kinase assay; avg; read-out: Mps1 avg (IC50 [mol/l]). It is filed as biochemical. In short, it runs like this: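 GST-tagged full-length recombinant human Mps-1 (~0.5 nM) pre-incubated 15 min with compound, then reacted 60 min at 22 °C with 10 μM ATP and 1 μM biotinylated peptide in Hepes pH 7.7 buffer. EDTA-stopped; TR-FRET (Eu anti-phospho-Ser/Thr to SA-XLent) 665/620 nm ratio normalised to no-inhibitor and no-enzyme controls.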
Turning to `Cc1nsc(Nc2cncc(C(F)(F)F)n2)c1C(=O)Nc1cccc(S(C)(=O)=O)c1` [Example 194, 3-methyl-N-[3-(methylsulfonyl)phenyl]-5-{[6-(trifluoromethyl)pyrazin-2-yl]amino}-1,2-thiazole-4-carboxamide], the IC50 is > 10 µM. Under `Cc1nsc(Nc2cnc(C(F)(F)F)cn2)c1C(=O)Nc1cccc(S(C)(=O)=O)c1` [Example 195, 3-methyl-N-[3-(methylsulfonyl)phenyl]-5-{[5-(trifluoromethyl)pyrazin-2-yl]amino}-1,2-thiazole-4-carboxamide] stands > 20 µM; under `Cc1nsc(Nc2cncc(C(F)(F)F)n2)c1C(=O)Nc1ccc(OCCN)nc1` [Example 196, N-[6-(2-aminoethoxy)pyridin-3-yl]-3-methyl-5-{[6-(trifluoromethyl)pyrazin-2-yl]amino}-1,2-thiazole-4-carboxamide], > 20 µM; under `Cc1nsc(Nc2cnc(C(F)(F)F)cn2)c1C(=O)Nc1ccc(OCCN)nc1` [Example 197, N-[6-(2-aminoethoxy)pyridin-3-yl]-3-methyl-5-{[5-(trifluoromethyl)pyrazin-2-yl]amino}-1,2-thiazole-4-carboxamide], > 20 µM. As to `Cc1nsc(Nc2cnc3ccccc3n2)c1C(=O)Nc1ccc(OCCC(=O)OC(C)(C)C)nc1` [Example 198, tert-butyl 3-{[5-({[3-methyl-5-(quinoxalin-2-ylamino)-1,2-thiazol-4-yl]carbonyl}amino)pyridin-2-yl]oxy}propanoate], the IC50 turned out to be 4.6 µM. For `Cc1nsc(Nc2ccc(C#N)cn2)c1C(=O)Nc1ccc(OCCC(=O)OC(C)(C)C)nc1` [Example 199, tert-butyl 3-({5-[({5-[(5-cyanopyridin-2-yl)amino]-3-methyl-1,2-thiazol-4-yl}carbonyl)amino]pyridin-2-yl}oxy)propanoate], the IC50 was > 20 µM. Under `Cc1nsc(Nc2cc(C#N)ccn2)c1C(=O)Nc1ccc(OCCC(=O)OC(C)(C)C)nc1` [Example 200, tert-butyl 3-({5-[({5-[(4-cyanopyridin-2-yl)amino]-3-methyl-1,2-thiazol-4-yl}carbonyl)amino]pyridin-2-yl}oxy)propanoate] stands > 20 µM; under `Cc1nsc(Nc2cnc3ccccc3n2)c1C(=O)Nc1ccc(C(N)=O)c(F)c1` [Example 201, N-(4-carbamoyl-3-fluorophenyl)-3-methyl-5-(quinoxalin-2-ylamino)-1,2-thiazole-4-carboxamide], > 20 µM; under `Cc1nsc(Nc2cnc3ccccc3n2)c1C(=O)Nc1ccc(F)c(C(N)=O)c1` [Example 202, N-(3-carbamoyl-4-fluorophenyl)-3-methyl-5-(quinoxalin-2-ylamino)-1,2-thiazole-4-carboxamide], 5.8 µM. With `Cc1nsc(Nc2ccc(C#N)cn2)c1C(=O)Nc1ccc(F)c(C(N)=O)c1` [Example 203, N-(3-carbamoyl-4-fluorophenyl)-5-[(5-cyanopyridin-2-yl)amino]-3-methyl-1,2-thiazole-4-carboxamide], the IC50 is > 20 µM.

For `Cc1nsc(Nc2cncc(C(F)(F)F)n2)c1C(=O)Nc1ccc(F)c(C(N)=O)c1` [Example 204, N-(3-carbamoyl-4-fluorophenyl)-3-methyl-5-{[6-(trifluoromethyl)pyrazin-2-yl]amino}-1,2-thiazole-4-carboxamide], the IC50 came to 17 µM. The value for `CC(=O)Nc1cc(NC(=O)c2c(C)nsc2Nc2cnccn2)ccc1F` [Example 205, N-(3-acetamido-4-fluorophenyl)-3-methyl-5-(pyrazin-2-ylamino)-1,2-thiazole-4-carboxamide] was > 20 µM. Under `CC(=O)Nc1cc(NC(=O)c2c(C)nsc2Nc2cnc(C(F)(F)F)cn2)ccc1F` [Example 206, N-(3-acetamido-4-fluorophenyl)-3-methyl-5-{[5-(trifluoromethyl)pyrazin-2-yl]amino}-1,2-thiazole-4-carboxamide] stands > 20 µM; under `CNC(=O)c1ccc(NC(=O)c2c(C)nsc2Nc2cnc3ccccc3n2)cc1F` [Example 207, N-[3-fluoro-4-(methylcarbamoyl)phenyl]-3-methyl-5-(quinoxalin-2-ylamino)-1,2-thiazole-4-carboxamide], > 20 µM; under `CNC(=O)c1ccc(NC(=O)c2c(C)nsc2Nc2ccc(C#N)cn2)cc1F` [Example 208, 5-[(5-cyanopyridin-2-yl)amino]-N-[3-fluoro-4-(methylcarbamoyl)phenyl]-3-methyl-1,2-thiazole-4-carboxamide], > 20 µM. The value for `Cc1nsc(Nc2cncc(C(F)(F)F)n2)c1C(=O)Nc1ccc(OCCCN)nc1` [Example 209, N-[6-(3-aminopropoxy)pyridin-3-yl]-3-methyl-5-{[6-(trifluoromethyl)pyrazin-2-yl]amino}-1,2-thiazole-4-carboxamide] was > 20 µM; that for `CNS(=O)(=O)c1ccc(NC(=O)c2c(C)nsc2Nc2cc(C#N)ccn2)cc1` [Example 210, 5-[(4-cyanopyridin-2-yl)amino]-3-methyl-N-[4-(methylsulfamoyl)phenyl]-1,2-thiazole-4-carboxamide] was > 20 µM; that for `CNS(=O)(=O)c1ccc(NC(=O)c2c(C)nsc2Nc2cncc(C(F)(F)F)n2)cc1` [Example 211, 3-methyl-N-[4-(methylsulfamoyl)phenyl]-5-{[6-(trifluoromethyl)pyrazin-2-yl]amino}-1,2-thiazole-4-carboxamide] was > 20 µM and 19 µM.

With `CNS(=O)(=O)c1ccc(NC(=O)c2c(C)nsc2Nc2cnc(C(F)(F)F)cn2)cc1` [Example 212, 3-methyl-N-[4-(methylsulfamoyl)phenyl]-5-{[5-(trifluoromethyl)pyrazin-2-yl]amino}-1,2-thiazole-4-carboxamide], the IC50 is > 20 µM. The value for `Cc1nsc(Nc2cnc(C(F)(F)F)cn2)c1C(=O)Nc1ccc(C(=O)NCCN2CCCC(F)C2)cc1` (stereo not drawn) [Example 213, N-(4-{[2-(3-fluoropiperidin-1-yl)ethyl]carbamoyl}phenyl)-3-methyl-5-{[5-(trifluoromethyl)pyrazin-2-yl]amino}-1,2-thiazole-4-carboxamide] was > 20 µM; that for `Cc1nsc(Nc2cncc(C(F)(F)F)n2)c1C(=O)Nc1ccc(C(=O)NCCN2CCCC(F)(F)C2)cc1` [Example 214, N-(4-{[2-(3,3-difluoropiperidin-1-yl)ethyl]carbamoyl}phenyl)-3-methyl-5-{[6-(trifluoromethyl)pyrazin-2-yl]amino}-1,2-thiazole-4-carboxamide] was > 20 µM; that for `Cc1nsc(Nc2cnc(C(F)(F)F)cn2)c1C(=O)Nc1ccc(OCCNC(=O)OC(C)(C)C)c(F)c1` [Example 215, tert-butyl [2-(2-fluoro-4-{[(3-methyl-5-{[5-(trifluoromethyl)pyrazin-2-yl]amino}-1,2-thiazol-4-yl)carbonyl]amino}phenoxy)ethyl]carbamate] was > 20 µM.

For the compound `Cc1nsc(Nc2cncc(C(F)(F)F)n2)c1C(=O)Nc1ccc(OCCNC(=O)OC(C)(C)C)c(F)c1` [Example 216, tert-butyl [2-(2-fluoro-4-{[(3-methyl-5-{[6-(trifluoromethyl)pyrazin-2-yl]amino}-1,2-thiazol-4-yl)carbonyl]amino}phenoxy)ethyl]carbamate], the IC50 is > 20 µM. Under `Cc1nsc(Nc2cnc(C(F)(F)F)cn2)c1C(=O)Nc1ccc(OC2CCN(C(=O)OC(C)(C)C)CC2)c(F)c1` [Example 217, tert-butyl 4-(2-fluoro-4-{[(3-methyl-5-{[5-(trifluoromethyl)pyrazin-2-yl]amino}-1,2-thiazol-4-yl)carbonyl]amino}phenoxy)piperidine-1-carboxylate] stands > 20 µM. Consider `Cc1nsc(Nc2cncc(C(F)(F)F)n2)c1C(=O)Nc1ccc(OC2CCN(C(C)C)CC2)nc1` [Example 218, N-{6-[(1-isopropylpiperidin-4-yl)oxy]pyridin-3-yl}-3-methyl-5-{[6-(trifluoromethyl)pyrazin-2-yl]amino}-1,2-thiazole-4-carboxamide], for which the IC50 is > 20 µM. As to `Cc1nsc(Nc2cncc(C(F)(F)F)n2)c1C(=O)Nc1ccc(OC2CCN(C)CC2)nc1` [Example 219, 3-methyl-N-{6-[(1-methylpiperidin-4-yl)oxy]pyridin-3-yl}-5-{[6-(trifluoromethyl)pyrazin-2-yl]amino}-1,2-thiazole-4-carboxamide], the IC50 is > 20 µM.

Consider `Cc1nsc(Nc2cnc(C(F)(F)F)cn2)c1C(=O)Nc1ccc(OC2CCN(C)CC2)nc1` [Example 220, 3-methyl-N-{6-[(1-methylpiperidin-4-yl)oxy]pyridin-3-yl}-5-{[5-(trifluoromethyl)pyrazin-2-yl]amino}-1,2-thiazole-4-carboxamide], for which the IC50 is > 20 µM.
